The values below come from patent publication US20260306463A1, “SIK INHIBITORS TO TREAT CHRONIC KIDNEY DISEASE” (The General Hospital Corporation, priority 2023, published 2026).

Assay [1] deals with renal fibrosis, adenine-induced CKD mice. The experiment in a line: renal fibrosis in adenine CKD mice (trichrome, immunoblot, RT-qPCR). The assay is classed as in vivo, mouse. On the procedure: FIGS. 3A-3C. SK-124 treatment reduces fibrosis in adenine-induced chronic kidney disease. (A) Representative trichrome stained sections from the indicated groups. Darker staining indicates fibrosis which is increased in vehicle-treated adenine diet mice and reduced by SK-124 treatment. (B) Kidney protein lysates were isolated and analyzed by immunoblotting for alpha-smooth muscle actin (αSMA) (top) and GAPDH (bottom). (C) Whole kidney RNA from the indicated groups was analyzed by RT-qPCR for the indicated fibrosis marker.
(§1) 7-week-old female CD1 mice were obtained from Charles River Laboratories (Wilmington, MA) and were fed on 0.2% adenine containing diet (TD.130900; 0.2% Adenine, 0.9% Phosphate, 0.5% Calcium; Envigo) or control diet (TD. 96348) for 6 or 8 weeks to induce chronic kidney disease (CKD). Mice were oral gavaged with 40 mg/kg SK-124, or intraperitonially injected with 80 μg/kg PTH, or treated with vehicle 5 days a week for the duration of the special diet.
(§2) cDNA was prepared using Primescript RT kit (Takara Inc), with 750 ng RNA per reaction. RT-qPCR was performed by using PerfeCa® SYBR® Green FAstMix® ROX (Quanta bio) in the StepOnePlus™ Real-time PCR System (Applied Biosystems). Hmbs was used as a control housekeeping gene for mouse samples, and B-Actin was used for organoids, relative expression was calculated (2^-deltaCT method) and compared to the mean of control group if necessary. Primers used for RT-qPCR are listed in Table 2 (mouse primers) and Table 3 (human primers).
Snap-frozen kidneys were homogenized in NP-40 lysis buffer (FNN0021, Thermo) with using TissueLyserII at 30 Hz for 5 minutes. Samples were rotated at 4 deg for 20 minutes and frozen on dry ice and thawed. After centrifuging for 30 minutes at 4 deg, the supernatants were collected. After determining the protein concentration by Bradford assay, […] of protein was loaded for western blotting. For KGli cells, the cells were washed with cold PBS then scraped into TNT buffer (Tris-NaCl-Tween buffer, 20 mM Tris-HCl pH 8, 200 mM NaCl, 0.5% Triton X-100 containing 1X-protease inhibitor cocktail (Bimake Inc. 100X, Cat. #B14001), 1 mM DTT, 1 mM NaF, 1 mM Vanadate (New England Biolabs)). Next, samples were vortexed for 1 minute and centrifuged at 14,000g for 6 minutes at 4 deg, and the supernatant was collected.
For immunoblotting, the lysates were separated by SDS-PAGE (Bio-rad precast gels), and proteins were transferred to the nitrocellulose membranes. Then, the membranes were blocked in 5% milk in tris-buffered saline plus 0.05% Tween-20 (TBST) and incubated with primary antibody in 5% BSA-TBST overnight at 4° C. Next day, after washing, membranes were incubated with anti-rabbit HRP-coupled secondary antibody (1:2500, Cell Signaling Technology, 7074S) or anti-mouse HRP-coupled secondary antibody (1:2500, Cell Signaling, 7076S), and signals were detected with SuperSignal West Femto Maximum Sensitivity Substrate (Thermo scientific) using the iBright imager (ThermoFisher). The antibodies used are: SIK2 (1:1000, Cell Signaling, 6919), GAPDH (1:1000, Cell Signaling, 2118), αSMA (1:1000, Invitrogen, 14-9760-82), pSMAD3 (1:1000, Cell Signaling, 9520), and SMAD⅔ (1:1000, Cell Signaling, 8685).
Hematoxylin and eosin (H+E) staining was performed on some sections using standard protocols and Masson's Trichome stain for fibrosis was performed according to the manufacturer's instructions (ab150686, abcam). Formalin-fixed paraffin embedded sections were also used for in situ hybridization according to the manufacturer instructions (ACDbio). Briefly, the sections were blocked with hydrogen peroxide for 10 minutes at room temperature, followed by antigen retrieval with Pepsin (R2283, Sigma-Aldrich) in humidified chamber in 40° C. HybEZ oven. The Sik1 (526411, ACD), Sik2 (526421, ACD), or Sik3 (526431, ACD) probe was added to the sections for 2 hours in the humidified chamber at 40° C. Then, the signal was amplified (322310, ACD) and detected using Brown DAB kit (322310, ACD). […]

Assay [2] deals with mice with adenine diet-induced chronic kidney disease. Briefly: 8 week adenine diet CKD study, SK-124 versus once daily PTH injections. It is filed as in vivo, mouse (female CD1). Conditions: 8 weeks. On the procedure: FIGS. 4A-4D. […] (A) Study design: Female CD1 mice (n=8/group) were treated with control or 0.2% adenine diet starting at […] of age along with vehicle, PTH (80 mcg/kg/d, IP injections) or SK-124 (40 mg/kg) treatment by oral gavage once daily. Mice were treated for 8 weeks. (B, C) After 8 weeks of treatment, the indicated serum analyte was measured. (D) Whole kidney RNA from the indicated groups was analyzed by RT-qPCR for the indicated fibrosis marker gene.
as §1
For studies with Ubiquitin-Cre^ERt2; Sik2^ff; Sik3^ff mice (JAX #007001 for Ubiquitin-Cre^ERt2: RRID:MGL:5905012 for Sik2 foxed mice; and Sik3^tmla(EUCOMM)Hmgu mice (RRID:MGI:5085429) bred to PGK1 FLPo mice (JAX #011065) in order to generate Sik3 foxed mice), tamoxifen was injected (1 mg, IP, Q48 hours, 3 injections total) in all animals including Cre-negative control littermates housed in cages with Pure-o′Cel bedding at 5 weeks of age. Mice were then fed on 0.2% adenine diet from 6 weeks to 9 weeks of age. Mice were fasted for 6 hours and treated with SK-124 and PTH 4 hours and 2 hours before the sacrifice. Blood and spot urine samples were collected by cheek pouch bleeding and by pipetting urine collected on hydrophobic sand (Labsand; Braintree, MA). Kidneys were immediately snap-frozen in liquid nitrogen for TRIzol (Life Technologies)-Chloroform (Fischer Scientific) based RNA isolation or protein isolation, or fixed in 10% formalin at 4C for 24 hrs for histology. All serum and urine measurements were performed using commercial bioassay detection reagents listed in Table 1, following the manufacturers' instructions. Urine protein levels were measured by Bradford assay and normalized to urine creatinine.
as §2

Turning to `CCc1nnc(-c2c(OC)cc(-c3cnc4cc(-c5cnn(C)c5)ccn34)cc2OC)o1` [SK-124, 2-[2,6-Dimethoxy-4-[7-(1-methylpyrazol-4-yl)imidazo[1,2-a]pyridin-3-yl]phenyl]-5-ethyl-1,3,4-oxadiazole], the “fibrosis (trichrome staining)” value in assay [1] (adenine diet, SK-124 40 mg/kg oral, 40 mg/kg) is reported as “reduced fibrosis”. Moreover, the αSMA protein entry in assay [1] (kidney lysates, immunoblot) is recorded as “reduced”. Moreover, in assay [1] (whole kidney RNA, RT-qPCR), the “Colla1 mRNA” value is “reduced”, the “Vimentin (Vim) mRNA” value was “reduced” and the “αSMA mRNA” value was “reduced”. Moreover, the CKD-MBD markers result in assay [2] (SK-124 40 mg/kg oral gavage once daily, or PTH 80 mcg/kg/d IP) was “reduced CKD-MBD markers”. The kidney function result in assay [2] (SK-124 40 mg/kg oral gavage once daily, or PTH 80 mcg/kg/d IP, 40 mg/kg) was “improved kidney function”. In addition, in assay [2] (whole kidney RT-qPCR, SK-124 40 mg/kg oral, or PTH 80 mcg/kg/d IP), the “fibrosis marker gene expression” value was “reduced fibrosis marker gene expression”.
